Assay results from BindingDB's records for doi:10.1006/jmbi.2000.4032 (Cnrs, 2000).

Columns and labels:
[1] = biological target: T1, Retinoic acid receptor alpha [200-419] (Homo sapiens, UniProt P10276); experiment: Retinoid Competition Binding Assay; details: pH 7.9; 4 °C
T1 construct: 200-419
T1 sequence (P10276 whole entry): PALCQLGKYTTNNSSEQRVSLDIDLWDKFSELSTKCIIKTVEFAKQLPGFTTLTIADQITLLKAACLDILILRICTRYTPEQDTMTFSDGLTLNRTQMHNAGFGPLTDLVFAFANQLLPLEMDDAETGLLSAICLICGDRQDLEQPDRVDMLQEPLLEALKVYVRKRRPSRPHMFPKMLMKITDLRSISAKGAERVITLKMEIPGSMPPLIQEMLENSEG

[2] = biological target: T2, Retinoic acid receptor beta [200-419] (Homo sapiens, UniProt P10826); experiment: Retinoid Competition Binding Assay; details: pH 7.9; 4 °C
T2 construct: 200-419
T2 sequence (P10826 whole entry): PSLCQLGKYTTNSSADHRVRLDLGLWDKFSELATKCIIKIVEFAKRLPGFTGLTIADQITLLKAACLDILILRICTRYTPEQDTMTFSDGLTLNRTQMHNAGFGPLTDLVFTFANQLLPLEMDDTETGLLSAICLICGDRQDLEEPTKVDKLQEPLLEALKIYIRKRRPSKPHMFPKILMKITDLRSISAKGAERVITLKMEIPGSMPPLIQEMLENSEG

Kd [1]: 0.4 nM | Kd [2]: 3.5 nM
SMILES: CC1(C)CCC(C)(C)c2cc(C(=O)/C=C/c3ccc(C(=O)O)cc3)ccc21 [Ch 80]
